Test results from PubChem BioAssay (NCI).
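Exposure lasted 48 hours, with cells grown in 96-well plates and compounds tested at five concentrations. GI50: concentration for 50% inhibition of growth. TGI denotes the concentration required for complete inhibition of growth.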

Key:
Test in all cases: inhibition of tumour cell growth, NCI panel, 48 h
OVCAR-5 ovarian = tested on: OVCAR-5 ovarian
HOP-18 NSCLC = tested on: HOP-18 NSCLC
DMS 114 small cell lung = tested on: DMS 114 small cell lung
A498 renal = tested on: A498 renal
OVCAR-8 ovarian = tested on: OVCAR-8 ovarian
UACC-62 melanoma = tested on: UACC-62 melanoma
NCI-H460 lung = tested on: NCI-H460 lung
XF 498 CNS = tested on: XF 498 CNS
U251 CNS = tested on: U251 CNS
OVCAR-3 ovarian = tested on: OVCAR-3 ovarian
CAKI-1 renal = tested on: CAKI-1 renal
SF-295 CNS = tested on: SF-295 CNS
SF-268 CNS = tested on: SF-268 CNS
SK-MEL-28 melanoma = tested on: SK-MEL-28 melanoma
COLO 205 colon = tested on: COLO 205 colon
SNB-78 CNS = tested on: SNB-78 CNS
786-0 renal = tested on: 786-0 renal
NCI-H226 lung = tested on: NCI-H226 lung
SK-MEL-5 melanoma = tested on: SK-MEL-5 melanoma
EKVX NSCLC = tested on: EKVX NSCLC
DLD-1 colon = tested on: DLD-1 colon
UACC-257 melanoma = tested on: UACC-257 melanoma
RXF 393 renal = tested on: RXF 393 renal
HCT-116 colon = tested on: HCT-116 colon
IGROV1 ovarian = tested on: IGROV1 ovarian
HOP-62 NSCLC = tested on: HOP-62 NSCLC
KM20L2 colon = tested on: KM20L2 colon
KM12 colon = tested on: KM12 colon
SNB-19 CNS = tested on: SNB-19 CNS
TK-10 renal = tested on: TK-10 renal
LOX IMVI melanoma = tested on: LOX IMVI melanoma
HCT-15 colon = tested on: HCT-15 colon
HOP-92 NSCLC = tested on: HOP-92 NSCLC
SF-539 CNS = tested on: SF-539 CNS
A549 NSCLC = tested on: A549 NSCLC
SN12C renal = tested on: SN12C renal
OVCAR-4 ovarian = tested on: OVCAR-4 ovarian
NCI-H23 lung = tested on: NCI-H23 lung
MALME-3M melanoma = tested on: MALME-3M melanoma
SW-620 colon = tested on: SW-620 colon
ACHN renal = tested on: ACHN renal
DMS 273 small cell lung = tested on: DMS 273 small cell lung
SK-MEL-2 melanoma = tested on: SK-MEL-2 melanoma
CCRF-CEM leukemia = tested on: CCRF-CEM leukemia
HCC-2998 colon = tested on: HCC-2998 colon
RPMI-8226 leukemia = tested on: RPMI-8226 leukemia
HL-60(TB) leukemia = tested on: HL-60(TB) leukemia
LXFL 529 NSCLC = tested on: LXFL 529 NSCLC
MOLT-4 leukemia = tested on: MOLT-4 leukemia
K-562 leukemia = tested on: K-562 leukemia
SNB-75 CNS = tested on: SNB-75 CNS
SK-OV-3 ovarian = tested on: SK-OV-3 ovarian
M14 melanoma = tested on: M14 melanoma
UO-31 renal = tested on: UO-31 renal

## CCCCCC(=O)OCCOCCOCCOCCOCCOCc1ccccc1
OVCAR-5 ovarian
  TGI: > 100 µM
HOP-18 NSCLC
  TGI: > 100 µM
DMS 114 small cell lung
  TGI: > 100 µM
A498 renal
  TGI: > 100 µM
OVCAR-8 ovarian
  TGI: > 100 µM
UACC-62 melanoma
  TGI: > 100 µM
NCI-H460 lung
  TGI: > 100 µM
XF 498 CNS
  TGI: > 100 µM
U251 CNS
  TGI: > 100 µM
OVCAR-3 ovarian
  TGI: > 100 µM
CAKI-1 renal
  TGI: > 100 µM
SF-295 CNS
  TGI: > 100 µM
SF-268 CNS
  TGI: > 100 µM
SK-MEL-28 melanoma
  TGI: > 100 µM
COLO 205 colon
  TGI: > 100 µM
SNB-78 CNS
  TGI: > 100 µM
786-0 renal
  TGI: > 100 µM
NCI-H226 lung
  TGI: > 100 µM
SK-MEL-5 melanoma
  TGI: > 100 µM
EKVX NSCLC
  TGI: > 100 µM
DLD-1 colon
  TGI: > 100 µM
UACC-257 melanoma
  TGI: > 100 µM
RXF 393 renal
  TGI: > 100 µM
HCT-116 colon
  TGI: > 100 µM
IGROV1 ovarian
  TGI: > 100 µM
HOP-62 NSCLC
  TGI: > 100 µM
KM20L2 colon
  TGI: > 100 µM
KM12 colon
  TGI: > 100 µM
SNB-19 CNS
  TGI: > 100 µM
TK-10 renal
  TGI: > 100 µM
LOX IMVI melanoma
  TGI: > 100 µM
HCT-15 colon
  TGI: > 100 µM
HOP-92 NSCLC
  TGI: > 100 µM
SF-539 CNS
  TGI: > 100 µM
A549 NSCLC
  TGI: > 100 µM
SN12C renal
  TGI: > 100 µM
OVCAR-4 ovarian
  TGI: > 100 µM
NCI-H23 lung
  TGI: > 100 µM
MALME-3M melanoma
  TGI: > 100 µM
SW-620 colon
  TGI: > 100 µM
ACHN renal
  TGI: > 100 µM
DMS 273 small cell lung
  TGI: > 100 µM
SK-MEL-2 melanoma
  TGI: > 100 µM

## O=C1OC(c2cccc(C(F)(F)F)c2)(c2cccc(C(F)(F)F)c2)c2ccc3ccccc3c21
OVCAR-5 ovarian
  GI50: > 100 µM
  TGI: > 100 µM
CCRF-CEM leukemia
  GI50: 9.13 µM
  TGI: > 100 µM
HOP-18 NSCLC
  GI50: > 100 µM
  TGI: > 100 µM
DMS 114 small cell lung
  GI50: 4.44 µM
  TGI: > 100 µM
A498 renal
  GI50: > 100 µM
  TGI: > 100 µM
OVCAR-8 ovarian
  GI50: > 100 µM
  TGI: > 100 µM
UACC-62 melanoma
  GI50: > 100 µM
  TGI: > 100 µM
XF 498 CNS
  TGI: > 100 µM
HCC-2998 colon
  GI50: > 100 µM
  TGI: > 100 µM
U251 CNS
  TGI: > 100 µM
RPMI-8226 leukemia
  GI50: 7.56 µM
  TGI: > 100 µM
OVCAR-3 ovarian
  GI50: 22.4 µM
  TGI: > 100 µM
CAKI-1 renal
  TGI: > 100 µM
SF-295 CNS
  TGI: > 100 µM
SF-268 CNS
  TGI: > 100 µM
HL-60(TB) leukemia
  TGI: > 100 µM
SK-MEL-28 melanoma
  GI50: > 100 µM
  TGI: > 100 µM
COLO 205 colon
  GI50: > 100 µM
  TGI: > 100 µM
SNB-78 CNS
  GI50: > 100 µM
  TGI: > 100 µM
786-0 renal
  GI50: > 100 µM
  TGI: > 100 µM
LXFL 529 NSCLC
  GI50: 7.26 µM
  TGI: > 100 µM
NCI-H226 lung
  TGI: > 100 µM
SK-MEL-5 melanoma
  GI50: 5.26 µM
  TGI: > 100 µM
EKVX NSCLC
  GI50: > 100 µM
  TGI: > 100 µM
DLD-1 colon
  GI50: > 100 µM
  TGI: > 100 µM
UACC-257 melanoma
  TGI: > 100 µM
MOLT-4 leukemia
  GI50: 7.21 µM
  TGI: > 100 µM
RXF 393 renal
  TGI: > 100 µM
K-562 leukemia
  GI50: 4.29 µM
  TGI: > 100 µM
IGROV1 ovarian
  GI50: > 100 µM
  TGI: > 100 µM
HOP-62 NSCLC
  GI50: > 100 µM
  TGI: > 100 µM
KM20L2 colon
  TGI: > 100 µM
KM12 colon
  TGI: > 100 µM
SNB-75 CNS
  GI50: > 100 µM
  TGI: > 100 µM
SNB-19 CNS
  TGI: > 100 µM
SK-OV-3 ovarian
  GI50: > 100 µM
  TGI: > 100 µM
M14 melanoma
  GI50: > 100 µM
  TGI: > 100 µM
TK-10 renal
  GI50: > 100 µM
  TGI: > 100 µM
LOX IMVI melanoma
  GI50: > 100 µM
  TGI: > 100 µM
UO-31 renal
  GI50: > 100 µM
  TGI: > 100 µM
HCT-15 colon
  TGI: > 100 µM
HOP-92 NSCLC
  TGI: > 100 µM
SF-539 CNS
  TGI: > 100 µM
A549 NSCLC
  GI50: > 100 µM
  TGI: > 100 µM
SN12C renal
  GI50: > 100 µM
  TGI: > 100 µM
OVCAR-4 ovarian
  GI50: > 100 µM
  TGI: > 100 µM
NCI-H23 lung
  GI50: 3.92 µM
  TGI: > 100 µM
MALME-3M melanoma
  GI50: > 100 µM
  TGI: > 100 µM
SW-620 colon
  GI50: > 100 µM
  TGI: > 100 µM
ACHN renal
  TGI: > 100 µM
DMS 273 small cell lung
  GI50: > 100 µM
  TGI: > 100 µM
SK-MEL-2 melanoma
  GI50: > 100 µM
  TGI: > 100 µM
